According to PubChem BioAssay (NCI):
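Five compound concentrations were applied to cells in 96-well plates for 48 hours; endpoints were derived by simple linear interpolation of the resulting dose-response curve. At the TGI there is no net growth.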

Legend:
Test in all cases: growth of human tumour cells (NCI), 48 h
[1] = system: M14 melanoma
[2] = system: SK-MEL-2 melanoma
[3] = system: NCI-H460 lung
[4] = system: HCT-116 colon
[5] = system: OVCAR-4 ovarian
[6] = system: MALME-3M melanoma
[7] = system: CAKI-1 renal
[8] = system: IGROV1 ovarian
[9] = system: SF-539 CNS
[10] = system: CCRF-CEM leukemia
[11] = system: SN12C renal
[12] = system: A549 NSCLC
[13] = system: OVCAR-3 ovarian
[14] = system: MOLT-4 leukemia
[15] = system: OVCAR-8 ovarian
[16] = system: SK-MEL-5 melanoma
[17] = system: XF 498 CNS
[18] = system: OVCAR-5 ovarian
[19] = system: K-562 leukemia
[20] = system: U251 CNS
[21] = system: ACHN renal
[22] = system: SK-OV-3 ovarian
[23] = system: EKVX NSCLC
[24] = system: M19-MEL melanoma
[25] = system: HT29 colon
[26] = system: UACC-62 melanoma
[27] = system: SK-MEL-28 melanoma
[28] = system: RXF 393 renal
[29] = system: UACC-257 melanoma
[30] = system: NCI-H23 lung
[31] = system: SW-620 colon
[32] = system: SNB-78 CNS
[33] = system: NCI-H226 lung
[34] = system: LOX IMVI melanoma
[35] = system: NCI-H522 lung
[36] = system: 786-0 renal
[37] = system: SNB-75 CNS
[38] = system: COLO 205 colon
[39] = system: DMS 273 small cell lung
[40] = system: HCT-15 colon
[41] = system: DLD-1 colon
[42] = system: HCC-2998 colon
[43] = system: KM12 colon
[44] = system: HOP-92 NSCLC
[45] = system: A498 renal
[46] = system: HOP-18 NSCLC
[47] = system: HOP-62 NSCLC
[48] = system: LXFL 529 NSCLC
[49] = system: KM20L2 colon
[50] = system: UO-31 renal
[51] = system: SF-295 CNS
[52] = system: SF-268 CNS
[53] = system: SNB-19 CNS
[54] = system: TK-10 renal
[55] = system: SR leukemia
[56] = system: HL-60(TB) leukemia
[57] = system: DMS 114 small cell lung
[58] = system: RPMI-8226 leukemia

Measured: TGI

CCOC(=O)c1cc(=O)n(C)c(=O)n1C
not listed: [55] | [56] | [57] | [58]
> 100 µM: all other assays above

CCN(CC)C(=O)CCn1cc(F)c(=O)[nH]c1=O
not listed: [7] | [22] | [29] | [41] | [42] | [44] | [45] | [46]
> 100 µM: all other assays above
